Assays:
[1] = tested on: AMBEL (Ragweed, Common); test: Preemergence herbicidal evaluation; type: in vivo, Ambrosia artemisifolia; settings: rated 4-5 weeks after treatment; for AMBEL rating: preemergence, 0-9 scale
Procedure, shortened: (§1)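 Seeds were mixed with potting soil and planted on about one inch of soil, then sprayed with test compound in aqueous acetone at about 0.0156 to 0.500 kg per hectare. Plants grew under standard greenhouse care and were visually rated 0-9 against untreated controls 4-5 weeks post-treatment.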

[2] = tested on: ECHORC (Watergrass (Calif.)); test: Postemergence weed control under flooded paddy conditions; type: in vivo, Echinochloa oryzoides; settings: postemergence weeds, rated 3 to 4 weeks after treatment
Procedure, shortened: (§2)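 With weeds 3 to 5 cm tall and rice at the 1.5 to 2.5 leaf stage, containers were flooded and water held 1.5 to 3 cm above soil. Compounds in 50/50 v/v aqueous/acetone went into the flood water at about 0.0313 to 0.500 kg/ha a.i. Effects were visually rated 0–9 against controls after three to four weeks in the greenhouse.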

[3] = tested on: TRZAWR (Wheat, Winter, cv Riband); test: Preemergence herbicidal evaluation; type: in vivo, Triticum aestivum; settings: rated 4-5 weeks after treatment; for TRZAWR rating: preemergence, 0-9 scale
Procedure, shortened: as §1

[4] = tested on: CYPSE (Flatsedge); test: Preemergence weed control under flooded paddy conditions; type: in vivo, Cyperus serotinus; settings: rated 3-4 weeks after treatment
Procedure, shortened: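 Values are visual 0-9 scores against a control for a preemergence application into paddy flood water at about 0.0313 to 0.500 kg/ha. Greenhouse duration was three to four weeks.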

[5] = tested on: GALAP (Galium); test: Postemergence herbicidal evaluation; type: in vivo, Galium aparine; settings: for GALAP herbicidal rating: postemergence
Procedure, shortened: (§3)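 Visual 0–9 rating versus control (stand, vigor, malformation, size, chlorosis, overall appearance), taken four to five weeks post-spray. Two-week-old seedlings received roughly 0.0156–0.500 kg/ha active in acetone/water (50/50) with 0.5% TWEEN 20 via nozzle at 40 psi.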

[6] = tested on: ZEAMX (Corn, Field); test: Preemergence herbicidal evaluation; type: in vivo, Zea mays; settings: rated 4-5 weeks after treatment; for ZEAMX rating: preemergence, 0-9 scale
Procedure, shortened: as §1

[7] = tested on: CHEAL (Lambsquarters, Common); test: Preemergence herbicidal evaluation; type: in vivo, Chenopodium album; settings: rated 4-5 weeks after treatment; for CHEAL rating: preemergence, 0-9 scale
Procedure, shortened: as §1

[8] = tested on: IPOHE (Morningglory, Ivyleaf); test: Preemergence herbicidal evaluation; type: in vivo, Ipomoea hederacea; settings: rated 4-5 weeks after treatment; for IPOHE rating: preemergence, 0-9 scale
Procedure, shortened: as §1

[9] = tested on: ECHORC (Watergrass (Calif.)); test: Preemergence weed control under flooded paddy conditions; type: in vivo, Echinochloa oryzoides; settings: rated 3-4 weeks after treatment
Procedure, shortened: (§4)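 Seeds or propagules sown in silt loam kept flooded 1.5-3 cm; compounds in 50/50 acetone/water pipetted into flood water at about 0.0313 to 0.500 kg/ha. Greenhouse; visual 0-9 rating versus untreated control 3-4 weeks after treatment.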

[10] = tested on: CYPIR (Rice Flatsedge); test: as above; type: in vivo, Cyperus iria; settings: rated 3-4 weeks after treatment
Procedure, shortened: as §4

[11] = tested on: ZEAMX (Corn, Field); test: Postemergence herbicidal evaluation; type: in vivo, Zea mays; settings: for ZEAMX herbicidal rating: postemergence
Procedure, shortened: as §3

[12] = tested on: ORYSAT (Rice, Tebonnet); test: Preemergence herbicidal evaluation; type: in vivo, Oryza sativa, (L.) Tebonnet; settings: rated 4-5 weeks after treatment; for ORYSAT rating: preemergence, 0-9 scale
Procedure, shortened: as §1

[13] = tested on: CASOB (Sicklepod); test: Postemergence herbicidal evaluation; type: in vivo, Cassia obtusifolia; settings: for CASOB herbicidal rating: postemergence
Procedure, shortened: as §3

[14] = tested on: CYPSE (Flatsedge); test: Postemergence weed control under flooded paddy conditions; type: in vivo, Cyperus serotinus; settings: postemergence weeds, rated 3 to 4 weeks after treatment
Procedure, shortened: as §2

## CCOC(=O)CN1C(=O)C(CC(=O)NO)S/C1=N/c1cc(-n2c(=O)cc(C(F)(F)F)n(C)c2=O)c(F)cc1Cl (stereo not shown) [Compound 98, Ethyl 2-{{2-chloro-5-[3,6-dihydro-3-methyl-2,6-dioxo-4-(trifluoromethyl)-1(2H)-pyrimidinyl]-4-fluorophenyl}imino}-5-[(hydroxycarbamoyl)methyl]-4-oxo-3-thiazolidineacetate]
[1]; 0.0156 kg/ha
  AMBEL rating: 0.0
[1]; 0.0313 kg/ha
  AMBEL rating: 0.0
[1]; 0.0625 kg/ha
  AMBEL rating: 2.0
[1]; 0.1250 kg/ha
  AMBEL rating: 3.0
[1]; 0.2500 kg/ha
  AMBEL rating: 5.0
[1]; 0.5000 kg/ha
  AMBEL rating: 7.0
[2]; Rate 0.0313 kg/ha
  Herbicidal rating ECHORC: 0.0
[2]; Rate 0.0625 kg/ha
  Herbicidal rating ECHORC: 0.0
[2]; Rate 0.1250 kg/ha
  Herbicidal rating ECHORC: 1.0
[2]; Rate 0.2500 kg/ha
  Herbicidal rating ECHORC: 3.0
[3]; 0.0156 kg/ha
  TRZAWR rating: 0.0
[3]; 0.0313 kg/ha
  TRZAWR rating: 0.0
[3]; 0.0625 kg/ha
  TRZAWR rating: 0.0
[3]; 0.1250 kg/ha
  TRZAWR rating: 0.0
[3]; 0.2500 kg/ha
  TRZAWR rating: 1.0
[3]; 0.5000 kg/ha
  TRZAWR rating: 3.0
[4]; 0.0313 kg/ha
  CYPSE herbicidal effect rating: 2.0
[4]; 0.0625 kg/ha
  CYPSE herbicidal effect rating: 3.0
[4]; 0.1250 kg/ha
  CYPSE herbicidal effect rating: 4.0
[4]; 0.2500 kg/ha
  CYPSE herbicidal effect rating: 4.0
[5]; rate 0.0156 kg/ha
  GALAP herbicidal rating: 0.0
[5]; rate 0.0313 kg/ha
  GALAP herbicidal rating: 0.0
[5]; rate 0.0625 kg/ha
  GALAP herbicidal rating: 0.0
[5]; rate 0.1250 kg/ha
  GALAP herbicidal rating: 1.0
[6]; 0.0156 kg/ha
  ZEAMX rating: 0.0
[6]; 0.0313 kg/ha
  ZEAMX rating: 0.0
[6]; 0.0625 kg/ha
  ZEAMX rating: 0.0
[6]; 0.1250 kg/ha
  ZEAMX rating: 0.0
[6]; 0.2500 kg/ha
  ZEAMX rating: 4.0
[6]; 0.5000 kg/ha
  ZEAMX rating: 6.0
[7]; 0.0156 kg/ha
  CHEAL rating: 0.0
[7]; 0.0313 kg/ha
  CHEAL rating: 2.0
[7]; 0.0625 kg/ha
  CHEAL rating: 5.0
[7]; 0.1250 kg/ha
  CHEAL rating: 7.0
[7]; 0.2500 kg/ha
  CHEAL rating: 9.0
[7]; 0.5000 kg/ha
  CHEAL rating: 9.0
[8]; 0.0156 kg/ha
  IPOHE rating: 0.0
[8]; 0.0313 kg/ha
  IPOHE rating: 0.0
[8]; 0.0625 kg/ha
  IPOHE rating: 1.0
[8]; 0.1250 kg/ha
  IPOHE rating: 3.0
[8]; 0.2500 kg/ha
  IPOHE rating: 4.0
[8]; 0.5000 kg/ha
  IPOHE rating: 9.0
[9]; 0.0313 kg/ha
  ECHORC herbicidal effect rating: 0.0
[9]; 0.0625 kg/ha
  ECHORC herbicidal effect rating: 0.0
[9]; 0.1250 kg/ha
  ECHORC herbicidal effect rating: 1.0
[9]; 0.2500 kg/ha
  ECHORC herbicidal effect rating: 3.0
[10]; 0.0313 kg/ha
  CYPIR herbicidal effect rating: 9.0
[10]; 0.0625 kg/ha
  CYPIR herbicidal effect rating: 9.0
[10]; 0.1250 kg/ha
  CYPIR herbicidal effect rating: 9.0
[10]; 0.2500 kg/ha
  CYPIR herbicidal effect rating: 9.0
[11]; rate 0.0156 kg/ha
  ZEAMX herbicidal rating: 3.0
[11]; rate 0.0313 kg/ha
  ZEAMX herbicidal rating: 4.0
[11]; rate 0.0625 kg/ha
  ZEAMX herbicidal rating: 4.0
[11]; rate 0.1250 kg/ha
  ZEAMX herbicidal rating: 5.0
[12]; 0.0156 kg/ha
  ORYSAT rating: 0.0
[12]; 0.0313 kg/ha
  ORYSAT rating: 0.0
[12]; 0.0625 kg/ha
  ORYSAT rating: 0.0
[12]; 0.1250 kg/ha
  ORYSAT rating: 0.0
[12]; 0.2500 kg/ha
  ORYSAT rating: 1.0
[12]; 0.5000 kg/ha
  ORYSAT rating: 4.0
[13]; rate 0.0156 kg/ha
  CASOB herbicidal rating: 0.0
[13]; rate 0.0313 kg/ha
  CASOB herbicidal rating: 0.0
[13]; rate 0.0625 kg/ha
  CASOB herbicidal rating: 0.0
[13]; rate 0.1250 kg/ha
  CASOB herbicidal rating: 1.0
[14]; Rate 0.0313 kg/ha
  Herbicidal rating CYPSE: 2.0
[14]; Rate 0.0625 kg/ha
  Herbicidal rating CYPSE: 3.0
[14]; Rate 0.1250 kg/ha
  Herbicidal rating CYPSE: 4.0
[14]; Rate 0.2500 kg/ha
  Herbicidal rating CYPSE: 4.0

## C=CCN1C(=O)C(CC(=O)OC)SC1=Nc1cc(-n2c(=O)cc(C(F)(F)F)n(C)c2=O)c(F)cc1Cl (stereo not shown) [Compound 64, Methyl 3-allyl-2-{{2-chloro-5-[3,6-dihydro-3-methyl-2,6-dioxo-4-(trifluoromethyl)-1(2H)-pyrimidinyl]-4-fluorophenyl}imino}-4-oxo-5-thiazolidineacetate]
[1]; rate 0.0156 kg/ha
  Preemergence herbicidal rating AMBEL: 2.0
[1]; rate 0.0313 kg/ha
  Preemergence herbicidal rating AMBEL: 6.0
[1]; rate 0.0625 kg/ha
  Preemergence herbicidal rating AMBEL: 7.0
[1]; rate 0.1250 kg/ha
  Preemergence herbicidal rating AMBEL: 9.0
[1]; rate 0.2500 kg/ha
  Preemergence herbicidal rating AMBEL: 9.0
[2]; Rate 0.0313 kg/ha
  Herbicidal rating ECHORC: 5.0
[2]; Rate 0.0625 kg/ha
  Herbicidal rating ECHORC: 6.0
[2]; Rate 0.1250 kg/ha
  Herbicidal rating ECHORC: 6.0
[2]; Rate 0.2500 kg/ha
  Herbicidal rating ECHORC: 9.0
[3]; rate 0.0156 kg/ha
  Preemergence herbicidal rating TRZAWR: 0.0
[3]; rate 0.0313 kg/ha
  Preemergence herbicidal rating TRZAWR: 0.0
[3]; rate 0.0625 kg/ha
  Preemergence herbicidal rating TRZAWR: 1.0
[3]; rate 0.1250 kg/ha
  Preemergence herbicidal rating TRZAWR: 1.0
[3]; rate 0.2500 kg/ha
  Preemergence herbicidal rating TRZAWR: 3.0
[4]; 0.0313 kg/ha
  CYPSE herbicidal effect rating: 0.0
[4]; 0.0625 kg/ha
  CYPSE herbicidal effect rating: 0.0
[4]; 0.1250 kg/ha
  CYPSE herbicidal effect rating: 0.0
[4]; 0.2500 kg/ha
  CYPSE herbicidal effect rating: 0.0
[5]; Rate 0.0158 kg/ha
  Postemergence herbicidal rating GALAP: 5.0
[5]; Rate 0.0315 kg/ha
  Postemergence herbicidal rating GALAP: 7.0
[5]; Rate 0.0630 kg/ha
  Postemergence herbicidal rating GALAP: 7.0
[6]; rate 0.0156 kg/ha
  Preemergence herbicidal rating ZEAMX: 0.0
[6]; rate 0.0313 kg/ha
  Preemergence herbicidal rating ZEAMX: 0.0
[6]; rate 0.0625 kg/ha
  Preemergence herbicidal rating ZEAMX: 1.0
[6]; rate 0.1250 kg/ha
  Preemergence herbicidal rating ZEAMX: 3.0
[6]; rate 0.2500 kg/ha
  Preemergence herbicidal rating ZEAMX: 7.0
[7]; rate 0.0156 kg/ha
  Preemergence herbicidal rating CHEAL: 9.0
[7]; rate 0.0313 kg/ha
  Preemergence herbicidal rating CHEAL: 9.0
[7]; rate 0.0625 kg/ha
  Preemergence herbicidal rating CHEAL: 9.0
[7]; rate 0.1250 kg/ha
  Preemergence herbicidal rating CHEAL: 9.0
[7]; rate 0.2500 kg/ha
  Preemergence herbicidal rating CHEAL: 9.0
[8]; rate 0.0156 kg/ha
  Preemergence herbicidal rating IPOHE: 0.0
[8]; rate 0.0313 kg/ha
  Preemergence herbicidal rating IPOHE: 0.0
[8]; rate 0.0625 kg/ha
  Preemergence herbicidal rating IPOHE: 9.0
[8]; rate 0.1250 kg/ha
  Preemergence herbicidal rating IPOHE: 9.0
[8]; rate 0.2500 kg/ha
  Preemergence herbicidal rating IPOHE: 9.0
[9]; 0.0313 kg/ha
  ECHORC herbicidal effect rating: 5.0
[9]; 0.0625 kg/ha
  ECHORC herbicidal effect rating: 6.0
[9]; 0.1250 kg/ha
  ECHORC herbicidal effect rating: 6.0
[9]; 0.2500 kg/ha
  ECHORC herbicidal effect rating: 9.0
[10]; 0.0313 kg/ha
  CYPIR herbicidal effect rating: 0.0
[10]; 0.0625 kg/ha
  CYPIR herbicidal effect rating: 2.0
[10]; 0.1250 kg/ha
  CYPIR herbicidal effect rating: 2.0
[10]; 0.2500 kg/ha
  CYPIR herbicidal effect rating: 7.0
[11]; Rate 0.0158 kg/ha
  Postemergence herbicidal rating ZEAMX: 7.0
[11]; Rate 0.0315 kg/ha
  Postemergence herbicidal rating ZEAMX: 8.0
[11]; Rate 0.0630 kg/ha
  Postemergence herbicidal rating ZEAMX: 8.0
[12]; rate 0.0156 kg/ha
  Preemergence herbicidal rating ORYSAT: 0.0
[12]; rate 0.0313 kg/ha
  Preemergence herbicidal rating ORYSAT: 0.0
[12]; rate 0.0625 kg/ha
  Preemergence herbicidal rating ORYSAT: 1.0
[12]; rate 0.1250 kg/ha
  Preemergence herbicidal rating ORYSAT: 1.0
[12]; rate 0.2500 kg/ha
  Preemergence herbicidal rating ORYSAT: 5.0
[13]; Rate 0.0158 kg/ha
  Postemergence herbicidal rating CASOB: 2.0
[13]; Rate 0.0315 kg/ha
  Postemergence herbicidal rating CASOB: 2.0
[13]; Rate 0.0630 kg/ha
  Postemergence herbicidal rating CASOB: 3.0
[14]; Rate 0.0313 kg/ha
  Herbicidal rating CYPSE: 0.0
[14]; Rate 0.0625 kg/ha
  Herbicidal rating CYPSE: 0.0
[14]; Rate 0.1250 kg/ha
  Herbicidal rating CYPSE: 0.0
[14]; Rate 0.2500 kg/ha
  Herbicidal rating CYPSE: 0.0
